Assay [1] concerns skin barrier and inflammation biomarkers in lesional skin biopsies. As to the kind of experiment: Biomarker gene expression in lesional skin biopsies by qRT-PCR (TLDA), Example 3. Format: in vivo, human. Particulars: only responder population, 3 weeks. How it is done:
(§1) Patients received topical applications of a niclosamide 2% composition and vehicle once daily for 3 weeks, followed by a 1-week follow up period. Topical niclosamide 2% and vehicle was applied on two separate target lesions of atopic dermatitis (lesions of at least 3×3-cm that are at least 2 cm apart, excluding the face, scalp, genitals, hands, and feet). The application areas (5×5-cm) were randomized (1:1) to once daily application of niclosamide 2% or vehicle at 5 mg/cm^2 without occlusion 6 days per week. Patients came to the study site for all study product application for a total of 3 weeks.
(§2) Three skin biopsies were collected in all patients (one from lesional skin at baseline, pre-dosing at Day 1, and two from lesional skin at Day 22 (one where topical niclosamide 2% had been applied and one where the vehicle had been applied). The lesional skin biopsies were analysed for skin thickness and inflammation biomarkers.
Skin barrier and inflammation biomarker levels were determined from lesional skin biopsies from application areas.
(§3) The skin biopsy samples were analysed by immunohistochemistry (IHC), and by gene expression studies by RT-PCR using TaqMan Low Density Array (TLDA), and by microarray using Affymetrix U133A Plus 2. The immunohistochemistry (IHC) was used to analyse cell biomarkers. The methodologies as disclosed by Guttman-Yassky et al, “Major differences in inflammatory dendritic cells and their products distinguish atopic dermatitis from psoriasis”, The Journal of Allergy and Clinical Immunology, vol. 119, issue 5, pages 1210-1217, 2007, were followed except for that U133A Plus 2-set Gene Chip probe arrays was used instead of U95A-set Gene Chip probe arrays.
Expression values (threshold cycle [Ct]) were normalized to Rplp0 by negatively transforming the Ct values to −dCt (IL17A was normalized to hARP, as analysed by qPCR). The undetected −dCt values were estimated for each gene as the 20% of the minimum across all samples. qRT-PCR expression data were modelled using a mixed effect model with Visit and Treatment Area as a fixed effect and a random intercept for each patient. This formulation intrinsically models the within patient correlation structure as in the case of a paired t-test. This approach introduces less bias than restricting the analysis for those patients who completed the study. Contrasts were used to estimate the fold changes with treatment within each treatment group and conduct hypothesis testing.
On the technique in general: Real-time PCR tracks product formation cycle by cycle.

The test system is the same in assay [2]. As to the kind of experiment: Biomarker gene expression in lesional skin biopsies by microarray (Affymetrix U133A Plus 2), Example 3. Format: in vivo, human. How it is done: as §1, §2, §3
Experimental design: The hybridization strategy was in concordance with experimental design principles, by for example keeping all samples from the same patient in the same date, and always include samples from every treatment arm/group.
Quality Control and Pre-processing: Quality control of microarray chips were carried out using standard QC metrics and R package microarray Quality Control. Expression measures were obtained using GCRMA algorithm (Wu & Irizarry, 2004). Several visual and modelling techniques were used to elucidate if batch effect existed. Principal Component analysis plots were used to detect if any evident batch effect existed. If such batch effects were found, they were adjusted using Combat, an empirical Bayes method for adjusting data for batch effects that is robust to outliers in small sample sizes (Johnson, Li, & Rabinovic, 2007). The implementation of Combat by package sva was used.
Probe-sets with at least 5% samples with expression larger than 3 (in log 2-scale) were kept for further analysis. Expression values were modelled using mixed-effect models with fixed factors Visit and Treatment Area and a random effect for each patient. Fold changes for the comparisons of interest were estimated and hypothesis testing was conducted on such comparisons using contrasts under the general framework for linear models in limma package. The inter-replicate correlation was computed by Duplicate Correlation function and the linear model was estimated by ImFit. P-values from the moderated (paired) t-test were adjusted for multiple hypotheses using the Benjamini-Hochberg procedure, which controls for FDR.

Assay [3] concerns CD3, langerin, CD11c and FceR1 cells in skin biopsies. Kind of assay: Immunohistochemistry (IHC) of cell markers in lesional skin biopsies, Example 3. Conditions: Day 22, 2% topical. Format: in vivo, human. How it is done:
as §2, §3

The test system of another assay is dendritic cells. Conditions: in-vitro; cited from earlier work.
Assay [4] relates to biomarkers in lesional AD skin. Particulars: 4 weeks, qRT-PCR; cited from earlier work.
Setting [5] is: microarray fold change, Day 22, sign as niclosamide vs vehicle.
The mark [6] stands for this setting: only responder population, 3 weeks, Microarray.

Marks after values point to notes of the source that are not given here.

Regarding `O=C(Nc1ccc([N+](=O)[O-])cc1Cl)c1cc(Cl)ccc1O` [Niclosamide, niclosamide], in assay [1], the “CCL17, Niclosamide 2% qd vs. predose” value is given as −3.42^d; the “CCL18, Niclosamide 2% qd vs. predose” value was −3.46^d; the “CCL20, Niclosamide 2% qd vs. predose” value is on record as −2^d; the “CCL22, Niclosamide 2% qd vs. predose” value is given as −2.56^d. In addition, in assay [1], the “CXCL1, Niclosamide 2% qd vs. predose” value is on record as −3.82^d; the “CXCL2, Niclosamide 2% qd vs. predose” value was −2.11^d; the “CXCL10, Niclosamide 2% qd vs. predose” value is recorded as −1.96^d; the “DEFB4B, Niclosamide 2% qd vs. predose” value is on record as −7.18^c. In assay [1], the “FLG, Niclosamide 2% qd vs. predose” value is reported as 2.06^e; the “IL5, Niclosamide 2% qd vs. predose” value was −3.69^d; the “IL10, Niclosamide 2% qd vs. predose” value is −2.16^d; the “IL13, Niclosamide 2% qd vs. predose” value is −3.18^d. In assay [1], the “IL17A, Niclosamide 2% qd vs. predose” value is given as −3.12^d; the “IL17C, Niclosamide 2% qd vs. predose” value is −3.91^d; the “IL19, Niclosamide 2% qd vs. predose” value is −6.65^c; the “K16/KRT16, Niclosamide 2% qd vs. predose” value is listed as −8.46^c. In assay [1], the “LOR, Niclosamide 2% qd vs. predose” value is recorded as 2.84^f; the “MMP12, Niclosamide 2% qd vs. predose” value is on record as −5.12^c; the “PI3, Niclosamide 2% qd vs. predose” value is listed as −11.2^b; the “S100A12, Niclosamide 2% qd vs. predose” value was −10.5^b. Also, in assay [2] (setting [5]), the “CXCL1, 2% niclosamide compared to vehicle” value is recorded as −2.10 and the “S100A12, 2% niclosamide compared to vehicle” value is on record as −2.30. Moreover, in assay [2] (setting [6]), the “CD3d, Niclosamide 2% qd vs. predose” value was −2.2^d; the “IL4R, Niclosamide 2% qd vs. predose” value was −2.19^d; the “IL15, Niclosamide 2% qd vs. predose” value is listed as −1.59^d; the “IL22, Niclosamide 2% qd vs. predose” value was −2.1^d. In assay [2] (setting [6]), the “JAK3, Niclosamide 2% qd vs. predose” value was −1.86^d; the “S100A8, Niclosamide 2% qd vs. predose” value is recorded as −1.82^d; the “S100A9, Niclosamide 2% qd vs. predose” value is listed as −5.15^d; the “STAT3, Niclosamide 2% qd vs. predose” value is −1.54^d. Besides, in assay [3], the “inflammatory cells (dendritic cells: CD11c, FceR1 in epidermis; Langerhans cells: langerin/CD207) compared to baseline” value is “Significant reductions in inflammatory cells”; the “total amount of T cells (dermis and epidermis) compared to baseline” value is reported as “No significant change”. The “LPS-induced dendritic cell maturation, cytokine, costimulatory and MHC molecule expression” value with dendritic cells is listed as “inhibitory action”.

As for “Dupilumab: inhibits interleukin-4 and interleukin-13 signalling by binding to interleukin-4 receptor α”, in assay [4], the “CCL17, Dupilumab 300 mg vs. predose” value is recorded as −9.2^b; the “CCL18, Dupilumab 300 mg vs. predose” value is on record as −7.6^c; the “CCL22, Dupilumab 300 mg vs. predose” value is on record as −2.1^d; the “CCL26, Dupilumab 300 mg vs. predose” value is reported as −6.3^c. In assay [4], the “K16/KRT16, Dupilumab 300 mg vs. predose” value is −10.7^b; the “MMP12, Dupilumab 300 mg vs. predose” value was −14^b; the “S100A8, Dupilumab 300 mg vs. predose” value is given as −3^d; the “S100A12, Dupilumab 300 mg vs. predose” value is −10.4^b.

Values taken from patent US20220265683A1, “HALOGENATED SALICYLANILIDES FOR THE TREATMENT OF DERMATITIS” (priority 2018, published 2022).
